{
  "source": "patent US20210402016A1",
  "about": "“RADIOLABELED BOMBESIN-DERIVED COMPOUNDS FOR IN VIVO IMAGING OF GASTRIN-RELEASING PEPTIDE RECEPTOR (GRPR) AND TREATMENT OF GRPR-RELATED DISORDERS” (Provincial Health Services Authority, priority 2018, published 2021)",
  "key": {"[1]": {"test_system": "PC-3 cells", "experiment": "Fluorometric calcium release assay (FLIPR Calcium 6)", "type": "cell-based, human", "description": "Calcium release assays were performed using a FLIPR Calcium 6 assay kit (Molecular Devices) according to published procedures (26). Briefly, 5×10^4 PC-3 cells were seeded overnight in 96-well clear bottom black plates. The growth medium was replaced with loading buffer containing a calcium-sensitive dye and incubated for 30 min at 37° C. The plate was placed in a FlexStation 3 microplate reader (Molecular Devices) and baseline fluorescent signals were acquired for 15 sec. […] The relative fluorescence unit (RFU=Max-Min) was used to determine the agonistic/antagonistic properties."}, "[2]": {"target": "T1, human GRPR (Homo sapiens, UniProt P30550)", "T1 construct": "endogenous in cells; host or cells: PC-3 human prostate adenocarcinoma cells (whole cells)", "T1 sequence (P30550 whole entry)": "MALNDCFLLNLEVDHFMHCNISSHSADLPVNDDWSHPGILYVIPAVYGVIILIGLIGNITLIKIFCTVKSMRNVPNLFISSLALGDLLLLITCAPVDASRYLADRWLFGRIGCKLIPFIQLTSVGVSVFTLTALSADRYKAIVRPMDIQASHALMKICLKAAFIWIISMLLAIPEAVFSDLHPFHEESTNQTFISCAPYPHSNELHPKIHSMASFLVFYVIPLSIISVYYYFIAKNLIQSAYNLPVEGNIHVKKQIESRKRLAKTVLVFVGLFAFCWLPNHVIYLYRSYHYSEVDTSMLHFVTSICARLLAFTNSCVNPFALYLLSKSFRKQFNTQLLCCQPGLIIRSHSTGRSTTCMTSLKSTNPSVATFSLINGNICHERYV", "experiment": "Competition binding assay, displacement of [^125I-Tyr^4]Bombesin on PC-3 cells", "description": "Cells were incubated 30-60 min at 37° C."}, "[3]": {"target": "T2, GRPR (Mus musculus, UniProt P21729)", "T2 construct": "the latter value was determined using Swiss 3T3 cells (17); host or cells: Swiss 3T3 cells", "T2 sequence (P21729 whole entry)": "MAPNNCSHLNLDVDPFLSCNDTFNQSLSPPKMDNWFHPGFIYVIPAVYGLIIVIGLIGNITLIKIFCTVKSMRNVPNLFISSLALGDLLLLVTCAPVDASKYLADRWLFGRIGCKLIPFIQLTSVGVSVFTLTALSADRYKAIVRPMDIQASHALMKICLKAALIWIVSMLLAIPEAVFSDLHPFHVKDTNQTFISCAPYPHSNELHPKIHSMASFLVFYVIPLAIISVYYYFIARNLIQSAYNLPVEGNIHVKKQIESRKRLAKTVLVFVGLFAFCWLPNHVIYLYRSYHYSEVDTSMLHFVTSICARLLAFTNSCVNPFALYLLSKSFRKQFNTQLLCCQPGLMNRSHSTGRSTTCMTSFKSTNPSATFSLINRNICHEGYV", "conditions": "determined using Swiss 3T3 cells; read-out: Reported Ki value; cited from earlier work"}, "[4]": {"test_system": "PC-3 xenograft bearing mice", "experiment": "Biodistribution in PC-3 tumor-bearing NRG mice (Example 1)", "type": "in vivo", "description": "The mice were sacrificed by CO2 inhalation at 30 min, 1 h, and 2 h p.i. Blood was collected by cardiac puncture. Organs/tissues were harvested, rinsed with PBS, blotted dry, and weighed. The activity in tissues was assayed by gamma counter and expressed as the percentage injected dose per gram of tissue (% ID/g)."}, "[5]": {"test_system": "nude mice bearing PC-3 tumors", "conditions": "Dalm et al.; cited from earlier work"}, "[6]": {"test_system": "PC-3 xenograft bearing mice", "conditions": "PET/CT, PC-3 tumor-bearing mice", "description": "Animal experiments were approved by the Animal Ethics Committee of the University of British Columbia. Male NOD.Cg-Rag1^tm1Mom∥2rg^tm1Wjl/SzJ (NRG) mice obtained from an in-house colony were subcutaneously inoculated with 5×10^6 PC-3 cells (100 μL; 1:1 PBS/Matrigel), and tumors were grown for 2 to 3 weeks.\nMice were sedated and scanned (Siemens Inveon microPET/CT) with body temperature maintained by heating pad. […] PET data were acquired in list mode, reconstructed using 3-dimensional ordered-subsets expectation maximization (2 iterations) followed by a fast maximum a priori algorithm (18 iterations) with CT-based attenuation correction. Images were analyzed using the Inveon Research Workplace software (Siemens Healthineers)."}},
  "note": "Where “and” joins values, the source holds several entries; their conditions need not be identical. Identical values can stand only once.",
  "data": [
    {"molecule": "Nc1ncnc2c1ncn2[C@@H]1O[C@H](COP(=O)(O)OP(=O)(O)OP(=O)(O)O)[C@@H](O)[C@H]1O", "note": "[ATP, adenosine triphosphate, reference compound]", "values": [
      {"measurement": "Intracellular calcium release", "setting": "[1]; 50 nM", "value": "511±45.5", "unit": "RFUs"}
    ]},
    {"molecule": "[D-Phe^6, Leu-NHEt^13, des-Met^14]Bombesin(6-14) [reference compound]", "values": [
      {"measurement": "Intracellular calcium release", "setting": "[1]; 5 nM", "value": "22.3±16.8", "unit": "RFUs"},
      {"measurement": "Intracellular calcium release", "setting": "[1]; 50 nM", "value": "42.0±20.4", "unit": "RFUs"}
    ]},
    {"molecule": "CC(C)CC(CC(C)C)NC(=O)[C@H](Cc1c[nH]cn1)NC(=O)CNC(=O)[C@@H](NC(=O)[C@H](C)NC(=O)[C@H](Cc1c[nH]c2ccccc12)NC(=O)[C@H](CCC(N)=O)NC(=O)[C@@H](Cc1ccccc1)NC(=O)COCC(=O)Nc1ccc(CNC(=O)CN2CCN(CC(=O)O)CCN(CC(=O)O)CCN(CC(=O)O)CC2)cc1)C(C)C", "note": "[Ga-NeoBOMB1, reference compound]", "values": [
      {"measurement": "Ki", "setting": "[2]", "value": "1.71 ± 0.28", "unit": "nM"}
    ]},
    {"molecule": "D-Phe-Gln-Trp-Ala-Val-Gly-His-Leu-L-Tac-NH2 [RC-3950-II]", "values": [
      {"measurement": "Ki", "setting": "[3]", "value": 0.078, "unit": "nM"}
    ]},
    {"molecule": "CC(C)CC(CC(C)C)NC(=O)[C@H](Cc1cnc[nH]1)NC(=O)CNC(=O)[C@@H](NC(=O)[C@H](C)NC(=O)[C@H](Cc1c[nH]c2ccccc12)NC(=O)[C@H](CCC(N)=O)NC(=O)[C@@H](Cc1ccccc1)NC(=O)COCC(=O)Nc1ccc(CNC(=O)CN2CCN(CC(=O)O)CCN(CC(=O)O)CCN(CC(=O)O)CC2)cc1)C(C)C", "note": "[^68Ga-NeoBOMB1, metal not drawn, reference compound]", "values": [
      {"measurement": "Biodistribution PC-3 Tumor, Mean", "setting": "[4]; 30 min p.i.", "value": "9.60±0.99", "unit": "% ID/g"},
      {"measurement": "Biodistribution Pancreas, Mean", "setting": "[4]; 30 min p.i.", "value": "95.7±12.7", "unit": "% ID/g"},
      {"measurement": "Biodistribution PC-3 Tumor, Mean", "setting": "[4]; 60 min p.i.", "value": "9.83±1.48", "unit": "% ID/g"},
      {"measurement": "Biodistribution Pancreas, Mean", "setting": "[4]; 60 min p.i.", "value": "122±28.4 % ID/g and 123±28.4 % ID/g"},
      {"measurement": "Biodistribution Blood, Mean", "setting": "[4]; 120 min p.i.", "value": "0.45±0.10", "unit": "% ID/g"},
      {"measurement": "Biodistribution PC-3 Tumor, Mean", "setting": "[4]; 120 min p.i.", "value": "12.1±3.72", "unit": "% ID/g"},
      {"measurement": "Biodistribution Pancreas, Mean", "setting": "[4]; 120 min p.i.", "value": "139±26.8", "unit": "% ID/g"},
      {"measurement": "Uptake in pancreas", "setting": "[5]", "value": "~15", "unit": "% ID/g"},
      {"measurement": "Uptake in tumor", "setting": "[5]", "value": "~10", "unit": "% ID/g"},
      {"measurement": "Excretion / clearance pathway", "setting": "[6]", "value": "both the hepatobiliary and renal pathways"}
    ]}
  ]
}
